Experimental data: paper PMC12301304 (Frontiers in Pharmacology, 2025)

What was measured:
Conditions in all cases: in vivo
CYP2e1 = CYP2e1 (Rattus norvegicus, UniProt P05182)
Experimental: The effect of the Zhicaowu–Hezi combination on CYP450 enzymes in rats was evaluated by examining the pharmacokinetics of theophylline (CYP1a2), metoprolol (CYP2d2), bupropion (CYP2b1), omeprazole (CYP2c13), chlorzoxazone (CYP2e1), testosterone (CYP3a1), and diclofenac (CYP2c11).
The collected blood was placed in sodium heparin-treated centrifuge tubes and centrifuged at 4°C for 10 min at 3,000 RPM. […] After 10 min of sedimentation, the supernatant was extracted through a 0.22-μm microporous membrane, 20 μL of which was injected into HPLC. The pharmacokinetic parameters of each probe drug were calculated using the non-atrial compartment model in Drug and Statistics software (DAS, 3.0; Shanghai, China).

CYP1a2 = molecular target: T1, CYP1a2 (Rattus norvegicus, UniProt P04799); design: from tissue; host or cells: live male Sprague-Dawley rats (whole animal, mainly liver)
T1 sequence (P04799 1-513): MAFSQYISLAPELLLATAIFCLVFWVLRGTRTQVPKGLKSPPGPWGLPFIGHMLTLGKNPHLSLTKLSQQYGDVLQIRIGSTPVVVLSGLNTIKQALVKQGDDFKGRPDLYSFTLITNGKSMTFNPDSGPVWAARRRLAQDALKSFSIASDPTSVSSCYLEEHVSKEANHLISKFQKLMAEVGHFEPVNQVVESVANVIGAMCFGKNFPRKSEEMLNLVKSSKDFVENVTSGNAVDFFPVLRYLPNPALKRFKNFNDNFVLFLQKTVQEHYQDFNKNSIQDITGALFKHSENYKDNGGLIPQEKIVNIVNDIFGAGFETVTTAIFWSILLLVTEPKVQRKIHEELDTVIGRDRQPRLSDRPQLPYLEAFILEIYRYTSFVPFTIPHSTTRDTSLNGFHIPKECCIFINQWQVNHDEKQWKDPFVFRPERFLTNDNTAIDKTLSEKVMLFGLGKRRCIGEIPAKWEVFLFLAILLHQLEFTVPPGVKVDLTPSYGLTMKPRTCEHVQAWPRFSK

CYP2d2 = molecular target: T2, CYP2d2 (Rattus norvegicus, UniProt P10634); design: from tissue; host or cells: live male Sprague-Dawley rats (whole animal, mainly liver)
T2 sequence (P10634 1-500): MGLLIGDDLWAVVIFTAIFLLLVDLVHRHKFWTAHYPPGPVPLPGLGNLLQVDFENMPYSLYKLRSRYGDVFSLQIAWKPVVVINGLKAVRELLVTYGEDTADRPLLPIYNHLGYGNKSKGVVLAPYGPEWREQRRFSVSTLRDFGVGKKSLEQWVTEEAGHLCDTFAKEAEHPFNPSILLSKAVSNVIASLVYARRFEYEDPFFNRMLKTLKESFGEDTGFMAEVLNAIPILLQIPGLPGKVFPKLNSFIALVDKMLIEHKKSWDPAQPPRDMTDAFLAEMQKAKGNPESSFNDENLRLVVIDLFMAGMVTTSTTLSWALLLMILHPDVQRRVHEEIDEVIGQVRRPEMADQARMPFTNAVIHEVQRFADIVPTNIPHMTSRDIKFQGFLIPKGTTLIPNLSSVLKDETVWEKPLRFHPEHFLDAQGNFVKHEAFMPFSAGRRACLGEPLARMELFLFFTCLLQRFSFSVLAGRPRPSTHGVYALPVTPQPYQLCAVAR

CYP2c11 = molecular target: T3, CYP2c11 (Rattus norvegicus, UniProt P08683); design: from tissue; host or cells: live male Sprague-Dawley rats (whole animal, mainly liver)
T3 sequence (P08683 1-500): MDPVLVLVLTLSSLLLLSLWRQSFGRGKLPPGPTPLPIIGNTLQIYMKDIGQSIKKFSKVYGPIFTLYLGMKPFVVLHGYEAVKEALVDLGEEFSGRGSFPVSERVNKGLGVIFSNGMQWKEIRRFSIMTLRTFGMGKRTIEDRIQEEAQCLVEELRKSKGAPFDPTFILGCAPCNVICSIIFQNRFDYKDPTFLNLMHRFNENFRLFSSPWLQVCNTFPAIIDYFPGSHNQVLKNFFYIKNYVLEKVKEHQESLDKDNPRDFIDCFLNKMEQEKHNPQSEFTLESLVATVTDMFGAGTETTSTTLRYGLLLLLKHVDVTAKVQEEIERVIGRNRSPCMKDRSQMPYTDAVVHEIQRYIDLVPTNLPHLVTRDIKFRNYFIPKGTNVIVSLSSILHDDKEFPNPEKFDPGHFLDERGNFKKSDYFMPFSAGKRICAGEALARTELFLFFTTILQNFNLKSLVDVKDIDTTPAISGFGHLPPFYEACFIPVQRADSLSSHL

CYP3a1 = molecular target: T4, CYP3a1 (Rattus norvegicus, UniProt P04800); design: from tissue; host or cells: live male Sprague-Dawley rats (whole animal, liver and intestine)
T4 sequence (P04800 1-504): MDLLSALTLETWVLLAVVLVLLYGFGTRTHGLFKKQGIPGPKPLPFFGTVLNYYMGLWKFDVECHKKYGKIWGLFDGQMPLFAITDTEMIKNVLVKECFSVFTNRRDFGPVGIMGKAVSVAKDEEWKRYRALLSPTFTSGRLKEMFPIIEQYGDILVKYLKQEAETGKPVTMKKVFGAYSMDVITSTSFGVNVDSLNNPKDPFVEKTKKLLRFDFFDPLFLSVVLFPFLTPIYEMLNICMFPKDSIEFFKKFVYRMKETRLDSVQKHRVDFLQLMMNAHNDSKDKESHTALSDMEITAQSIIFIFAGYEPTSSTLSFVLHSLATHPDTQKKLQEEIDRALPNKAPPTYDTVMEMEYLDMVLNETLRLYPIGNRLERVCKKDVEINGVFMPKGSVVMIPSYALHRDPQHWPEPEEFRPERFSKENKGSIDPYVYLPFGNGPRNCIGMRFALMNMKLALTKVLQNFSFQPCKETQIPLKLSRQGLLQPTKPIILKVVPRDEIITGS

CYP2e1, sequence (P05182 whole entry): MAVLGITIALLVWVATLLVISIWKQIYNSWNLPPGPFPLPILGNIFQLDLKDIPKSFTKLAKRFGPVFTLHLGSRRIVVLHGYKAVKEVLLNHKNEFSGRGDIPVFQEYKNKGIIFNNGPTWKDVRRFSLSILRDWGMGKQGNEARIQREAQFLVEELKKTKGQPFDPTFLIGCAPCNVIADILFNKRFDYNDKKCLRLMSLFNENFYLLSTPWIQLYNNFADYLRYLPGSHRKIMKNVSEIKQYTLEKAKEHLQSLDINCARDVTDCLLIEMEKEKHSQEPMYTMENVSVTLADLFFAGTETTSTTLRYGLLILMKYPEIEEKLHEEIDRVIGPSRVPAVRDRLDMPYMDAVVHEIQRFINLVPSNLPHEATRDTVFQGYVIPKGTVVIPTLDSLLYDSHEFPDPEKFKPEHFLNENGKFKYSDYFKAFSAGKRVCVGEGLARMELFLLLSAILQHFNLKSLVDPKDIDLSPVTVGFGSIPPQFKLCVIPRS

CCC1(c2ccccc2)C(=O)NC(=O)NC1=O [P, phenobarbital sodium]
chlorzoxazone AUC(0-t) (CYP2e1): 32754 ± 4037 ng·h/mL | chlorzoxazone AUC(0-∞) (CYP2e1): 47632 ± 6051 ng·h/mL | chlorzoxazone CLz/F (CYP2e1): 13.4061 ± 1.1103 mL/min/kg | chlorzoxazone Cmax (CYP2e1): 3543 ± 431 ng/mL | chlorzoxazone t1/2 z (CYP2e1): 13.368 ± 1.308 h | theophylline AUC(0-t) (CYP1a2): 12257 ± 742 ng·h/mL | theophylline AUC(0-∞) (CYP1a2): 13565 ± 801 ng·h/mL | theophylline CLz/F (CYP1a2): 7,744.326 ± 56.253 mL/h/kg | theophylline Cmax (CYP1a2): 1138 ± 201 ng/mL | theophylline t1/2 z (CYP1a2): 2.509 ± 0.436 h | metoprolol AUC(0-t) (CYP2d2): 3511 ± 445 ng·h/mL | metoprolol AUC(0-∞) (CYP2d2): 3623 ± 461 ng·h/mL | metoprolol CLz/F (CYP2d2): 2,495.074 ± 157.841 mL/h/kg | metoprolol Cmax (CYP2d2): 312 ± 41 ng/mL | metoprolol t1/2 z (CYP2d2): 2.532 ± 0.221 h | diclofenac AUC(0-t) (CYP2c11): 3978 ± 385 ng·h/mL | diclofenac AUC(0-∞) (CYP2c11): 4057 ± 343 ng·h/mL | diclofenac CLz/F (CYP2c11): 3,071.310 ± 519.261 mL/h/kg | diclofenac Cmax (CYP2c11): 735 ± 68 ng/mL | diclofenac t1/2 z (CYP2c11): 3.342 ± 0.425 h | testosterone AUC(0-t) (CYP3a1): 756 ± 48 ng·h/mL | testosterone AUC(0-∞) (CYP3a1): 907 ± 93 ng·h/mL | testosterone CLz/F (CYP3a1): 6,479.436 ± 351.908 mL/h/kg | testosterone Cmax (CYP3a1): 107 ± 15 ng/mL | testosterone t1/2 z (CYP3a1): 7.394 ± 0.958 h
